Measured values: PubChem BioAssay (NCI)
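Method: 48-hour compound exposure of cells in 96-well plates, five concentrations, linear interpolation of endpoints. The concentration for full growth arrest is given as TGI.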

What was measured:
Assay in all cases: inhibition of tumour cell growth, NCI panel, 48 h
SK-MEL-28 melanoma = tested on: SK-MEL-28 melanoma
SW-620 colon = tested on: SW-620 colon
CAKI-1 renal = tested on: CAKI-1 renal
COLO 205 colon = tested on: COLO 205 colon
T-47D breast = tested on: T-47D breast
U251 CNS = tested on: U251 CNS
SNB-19 CNS = tested on: SNB-19 CNS
MDA-MB-231 breast = tested on: MDA-MB-231 breast
HL-60(TB) leukemia = tested on: HL-60(TB) leukemia
BT-549 breast = tested on: BT-549 breast
IGROV1 ovarian = tested on: IGROV1 ovarian
PC-3 prostate = tested on: PC-3 prostate
SF-539 CNS = tested on: SF-539 CNS
RXF 393 renal = tested on: RXF 393 renal
KM12 colon = tested on: KM12 colon
SK-MEL-5 melanoma = tested on: SK-MEL-5 melanoma
MDA-MB-435 = tested on: MDA-MB-435
HS 578T breast = tested on: HS 578T breast
SF-295 CNS = tested on: SF-295 CNS
LOX IMVI melanoma = tested on: LOX IMVI melanoma
NCI/ADR-RES ovarian = tested on: NCI/ADR-RES ovarian
HOP-92 NSCLC = tested on: HOP-92 NSCLC
UACC-62 melanoma = tested on: UACC-62 melanoma
HOP-62 NSCLC = tested on: HOP-62 NSCLC
UO-31 renal = tested on: UO-31 renal
HCC-2998 colon = tested on: HCC-2998 colon
HT29 colon = tested on: HT29 colon
NCI-H522 lung = tested on: NCI-H522 lung
NCI-H23 lung = tested on: NCI-H23 lung
OVCAR-5 ovarian = tested on: OVCAR-5 ovarian
M14 melanoma = tested on: M14 melanoma
MDA-N = tested on: MDA-N
K-562 leukemia = tested on: K-562 leukemia
OVCAR-3 ovarian = tested on: OVCAR-3 ovarian
SF-268 CNS = tested on: SF-268 CNS
SK-OV-3 ovarian = tested on: SK-OV-3 ovarian
HCT-116 colon = tested on: HCT-116 colon
UACC-257 melanoma = tested on: UACC-257 melanoma
MOLT-4 leukemia = tested on: MOLT-4 leukemia
SR leukemia = tested on: SR leukemia
HCT-15 colon = tested on: HCT-15 colon
TK-10 renal = tested on: TK-10 renal
SK-MEL-2 melanoma = tested on: SK-MEL-2 melanoma
CCRF-CEM leukemia = tested on: CCRF-CEM leukemia
RPMI-8226 leukemia = tested on: RPMI-8226 leukemia
786-0 renal = tested on: 786-0 renal
NCI-H460 lung = tested on: NCI-H460 lung
MALME-3M melanoma = tested on: MALME-3M melanoma
DU-145 prostate = tested on: DU-145 prostate
OVCAR-4 ovarian = tested on: OVCAR-4 ovarian
A498 renal = tested on: A498 renal
MCF7 breast = tested on: MCF7 breast
A549 NSCLC = tested on: A549 NSCLC
EKVX NSCLC = tested on: EKVX NSCLC
SN12C renal = tested on: SN12C renal
OVCAR-8 ovarian = tested on: OVCAR-8 ovarian
NCI-H226 lung = tested on: NCI-H226 lung
ACHN renal = tested on: ACHN renal

In the case of `Cc1ccc(C2(O)c3ccccc3C(=O)N(C)C2(O)c2ccc(C)cc2)cc1` (centres undefined), the TGI (SK-MEL-28 melanoma) is reported as > 100 µM, the TGI (SW-620 colon) is reported as > 100 µM and the TGI (CAKI-1 renal) is reported as > 100 µM. The TGI (COLO 205 colon) was > 100 µM, the TGI (T-47D breast) was > 100 µM and the TGI (U251 CNS) was 40.1 µM. The TGI (SNB-19 CNS) was 64.1 µM, the TGI (MDA-MB-231 breast) was > 100 µM and the TGI (HL-60(TB) leukemia) was 40.3 µM. For the same compound, the TGI (BT-549 breast) was > 100 µM, the TGI (IGROV1 ovarian) was > 100 µM and the TGI (PC-3 prostate) was > 100 µM. For the same compound, the TGI (SF-539 CNS) was > 100 µM, the TGI (RXF 393 renal) was > 100 µM and the TGI (KM12 colon) was > 100 µM. The TGI (SK-MEL-5 melanoma) was > 100 µM, the TGI (MDA-MB-435) was > 100 µM and the TGI (HS 578T breast) was 46.9 µM. The TGI (SF-295 CNS) was > 100 µM, the TGI (LOX IMVI melanoma) was > 100 µM and the TGI (NCI/ADR-RES ovarian) was > 100 µM. The TGI (HOP-92 NSCLC) was 91.1 µM, the TGI (UACC-62 melanoma) was > 100 µM and the TGI (HOP-62 NSCLC) was 49.5 µM. For the same compound, the TGI (UO-31 renal) was > 100 µM, the TGI (HCC-2998 colon) was > 100 µM and the TGI (HT29 colon) was > 100 µM. The TGI (NCI-H522 lung) was > 100 µM, the TGI (NCI-H23 lung) was > 100 µM and the TGI (OVCAR-5 ovarian) was > 100 µM. The TGI (M14 melanoma) was > 100 µM, the TGI (MDA-N) was > 100 µM and the TGI (K-562 leukemia) was > 100 µM. For the same compound, the TGI (OVCAR-3 ovarian) was > 100 µM, the TGI (SF-268 CNS) was 50.6 µM and the TGI (SK-OV-3 ovarian) was > 100 µM. The TGI (HCT-116 colon) was > 100 µM, the TGI (UACC-257 melanoma) was > 100 µM and the TGI (MOLT-4 leukemia) was 35.1 µM. For the same compound, the TGI (SR leukemia) was 13.2 µM, the TGI (HCT-15 colon) was > 100 µM and the TGI (TK-10 renal) was > 100 µM. For the same compound, the TGI (SK-MEL-2 melanoma) was > 100 µM, the TGI (CCRF-CEM leukemia) was 39.3 µM and the TGI (RPMI-8226 leukemia) was > 100 µM. For the same compound, the TGI (786-0 renal) was > 100 µM, the TGI (NCI-H460 lung) was 75.8 µM and the TGI (MALME-3M melanoma) was > 100 µM. The TGI (DU-145 prostate) was > 100 µM, the TGI (OVCAR-4 ovarian) was 50.9 µM and the TGI (A498 renal) was > 100 µM. The TGI (MCF7 breast) was > 100 µM, the TGI (A549 NSCLC) was > 100 µM and the TGI (EKVX NSCLC) was > 100 µM. The TGI (SN12C renal) was > 100 µM and the TGI (OVCAR-8 ovarian) was 90.9 µM.
`COc1ccccc1N1CCN(CCCCNC(=O)c2ccc([N+](=O)[O-])o2)CC1` was tested, and the TGI (SK-MEL-28 melanoma) was > 100 µM, the TGI (NCI-H226 lung) was 29.4 µM and the TGI (SW-620 colon) was > 66 µM. For the same compound, the TGI (CAKI-1 renal) was 40.5 µM, the TGI (COLO 205 colon) was 6.79 µM and the TGI (T-47D breast) was 40.3 µM. For the same compound, the TGI (U251 CNS) was 24.6 µM, the TGI (SNB-19 CNS) was 25.5 µM and the TGI (MDA-MB-231 breast) was 77.1 µM. For the same compound, the TGI (HL-60(TB) leukemia) was 26.1 µM, the TGI (BT-549 breast) was 14.7 µM and the TGI (IGROV1 ovarian) was 28.9 µM. For the same compound, the TGI (ACHN renal) was 25.2 µM, the TGI (PC-3 prostate) was 39.8 µM and the TGI (SF-539 CNS) was 19.5 µM. For the same compound, the TGI (RXF 393 renal) was 25.2 µM, the TGI (KM12 colon) was 20.3 µM and the TGI (SK-MEL-5 melanoma) was 18.7 µM. The TGI (MDA-MB-435) was 12 µM, the TGI (HS 578T breast) was 41 µM and the TGI (SF-295 CNS) was 25.7 µM. For the same compound, the TGI (LOX IMVI melanoma) was 16.3 µM, the TGI (NCI/ADR-RES ovarian) was > 100 µM and the TGI (HOP-92 NSCLC) was 40.4 µM. The TGI (UACC-62 melanoma) was 18.4 µM, the TGI (HOP-62 NSCLC) was 16.5 µM and the TGI (UO-31 renal) was 23.2 µM. The TGI (HCC-2998 colon) was 5.71 µM, the TGI (HT29 colon) was 9.92 µM and the TGI (NCI-H522 lung) was 7.26 µM. The TGI (NCI-H23 lung) was 15.9 µM, the TGI (OVCAR-5 ovarian) was 33.1 µM and the TGI (M14 melanoma) was 14.6 µM. For the same compound, the TGI (MDA-N) was 13.6 µM, the TGI (K-562 leukemia) was > 60.5 µM and the TGI (OVCAR-3 ovarian) was 17.8 µM. The TGI (SF-268 CNS) was 35.4 µM, the TGI (SK-OV-3 ovarian) was 56.7 µM and the TGI (HCT-116 colon) was 24.6 µM. The TGI (UACC-257 melanoma) was 13.2 µM, the TGI (MOLT-4 leukemia) was > 62.5 µM and the TGI (SR leukemia) was > 58.3 µM. For the same compound, the TGI (HCT-15 colon) was 17.5 µM, the TGI (TK-10 renal) was 18.3 µM and the TGI (SK-MEL-2 melanoma) was 19.4 µM. For the same compound, the TGI (CCRF-CEM leukemia) was 58.2 µM, the TGI (RPMI-8226 leukemia) was > 68.4 µM and the TGI (786-0 renal) was 21.4 µM. For the same compound, the TGI (NCI-H460 lung) was 12.5 µM, the TGI (MALME-3M melanoma) was 7.94 µM and the TGI (DU-145 prostate) was 16.4 µM. For the same compound, the TGI (OVCAR-4 ovarian) was 28.9 µM, the TGI (A498 renal) was 22.8 µM and the TGI (MCF7 breast) was 22.2 µM. It also gave a TGI (A549 NSCLC) of 19.5 µM, a TGI (EKVX NSCLC) of 34.2 µM and a TGI (SN12C renal) of 17.4 µM. For the same compound, the TGI (OVCAR-8 ovarian) was 45.6 µM.
